Results as given in article PMC10714400, “Antimicrobial Peptide–Peptoid Hybrids with and without Membrane Disruption” (ACS Infectious Diseases, 2023).
Converted amounts (≈) assume the structure as drawn. Like-named read-outs stand apart in the source and are kept apart here. Where a SMILES comes first, the peptide text is derived from it. [ ]: non-standard residue; d: D form. Nleu = CC(C)CNCC(=O)O; Nlys = NCCCCNCC(=O)O

Key:
[1] = system: ZEM9A (clinical MDR P. aeruginosa isolate)
Method in brief: (§1)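 MTT added (20–30 min, room temperature); MIC read by eye as lowest concentration inhibiting visible growth (yellow). Polymyxin B positive control from 16 μg/mL.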

E. cloacae = system: E. cloacae
Method in brief: as §1

[2] = system: ZEM-1A (clinical MDR P. aeruginosa isolate); conditions: CSV
Method in brief: as §1

A. baumannii ATCC19606 = conditions: ATCC19606, 4 h
Method in brief: as §1

PA14 2P4 (pmrB) = system: PA14 2P4 (pmrB)
Method in brief: as §1

K. pneumoniae NCTC418 = conditions: NCTC418, 4 h
Method in brief: as §1

PA14 4.13 (phoQ) = system: PA14 4.13 (phoQ)
Method in brief: as §1

K. pneumoniae OXA-48 = system: K. pneumoniae OXA-48
Method in brief: as §1

E. coli W3110 = system: E. coli W3110
Method in brief: as §1

PA14 4.18 (pmrB) = system: PA14 4.18 (pmrB)
Method in brief: as §1

S. aureus COL (MRSA) = conditions: COL, 4 h
Method in brief: as §1

P. aeruginosa PAO1 = conditions: PAO1, 4 h
Method in brief: as §1

CC(C)C[C@H](NC(=O)[C@H](CC(C)C)NC(=O)[C@H](CC(C)C)NC(=O)[C@H](CCCCN)NC(=O)[C@H](CC(C)C)NC(=O)[C@H](CC(C)C)NC(=O)CN(CCCCN)C(=O)CN(CC(C)C)C(=O)CN(CC(C)C)C(=O)CN(CCCCN)C(=O)CNCCCCN)C(N)=O [EB5, kkllkLLKLLL] (H-[Nlys][Nlys][Nleu][Nleu][Nlys]LLKLLL-NH2)
MIC P. aeruginosa ZEM9A, […] MH at pH 8.5 ([1]; CSV, […] MH at pH 8.5): 2 ug/mL | MIC P. aeruginosa ZEM9A, full MH at pH 7.4 ([1]; CSV, full MH at pH 7.4): 8 ug/mL | MIC ZEM9A ([1]; MH pH 7.4, 16–20 h at 37 °C): 8 µg/mL (≈ 6.05 µM) | MIC P. aeruginosa ZEM9A ([1]; Table S3, […] MH at pH 8.5): 2 µg/mL (≈ 1.51 µM) | MIC E. cloacae, full MH at pH 7.4 (E. cloacae; 4 h, pH 7.4): 12 ug/mL | MIC E. cloacae (E. cloacae; 4 h, pH 8.5): 4 µg/mL (≈ 3.03 µM) | MIC E. cloacae (E. cloacae; pH 7.4): 8 to 16 µg/mL | MIC P. aeruginosa ZEM-1A, […] MH at pH 8.5 ([2]; […] MH at pH 8.5): 2 ug/mL | MIC P. aeruginosa ZEM-1A, full MH at pH 7.4 ([2]; full MH at pH 7.4): 2 ug/mL | MIC A. baumannii ATCC19606, full MH at pH 7.4 (A. baumannii ATCC19606; pH 7.4): 2 ug/mL | MIC A. baumannii ATCC19606, full MH at pH 8.5 (A. baumannii ATCC19606; pH 8.5): >32 ug/mL | MIC P. aeruginosa PA14 2P4, […] MH at pH 8.5 (PA14 2P4 (pmrB); CSV, […] MH at pH 8.5): 2 ug/mL | MIC P. aeruginosa PA14 2P4, full MH at pH 7.4 (PA14 2P4 (pmrB); CSV, full MH at pH 7.4): >32 ug/mL | MIC PA14 2P4 (pmrB) (PA14 2P4 (pmrB); MH pH 7.4, 16–20 h at 37 °C): >32 µg/mL | MIC P. aeruginosa PA14 2P4 (PA14 2P4 (pmrB); Table S3, […] MH at pH 8.5): 2 µg/mL (≈ 1.51 µM) | MIC K. pneumoniae NCTC418, full MH at pH 7.4 (K. pneumoniae NCTC418; pH 7.4): >32 ug/mL | MIC K. pneumoniae NCTC418, full MH at pH 8.5 (K. pneumoniae NCTC418; pH 8.5): 24 ug/mL | MIC K. pneumoniae NCTC418 Full MH 8.5 (K. pneumoniae NCTC418; pH 8.5): 16 to 32 µg/mL | MIC P. aeruginosa PA14 4.13, […] MH at pH 8.5 (PA14 4.13 (phoQ); CSV, […] MH at pH 8.5): 2 ug/mL | MIC P. aeruginosa PA14 4.13, full MH at pH 7.4 (PA14 4.13 (phoQ); CSV, full MH at pH 7.4): 8 ug/mL | MIC PA14 4.13 (phoQ) (PA14 4.13 (phoQ); MH pH 7.4, 16–20 h at 37 °C): 8 µg/mL (≈ 6.05 µM) | MIC P. aeruginosa PA14 4.13 (PA14 4.13 (phoQ); Table S3, […] MH at pH 8.5): 2 µg/mL (≈ 1.51 µM) | MIC K. pneumoniae OXA-48, […] MH at pH 8.5 (K. pneumoniae OXA-48; CSV, […] MH at pH 8.5): 8 ug/mL | MIC K. pneumoniae OXA-48, full MH at pH 7.4 (K. pneumoniae OXA-48; CSV, full MH at pH 7.4): >32 ug/mL | MIC K. pneumoniae OXA-48 (K. pneumoniae OXA-48; MH pH 7.4, 16–20 h at 37 °C): 32 to 64 µg/mL | MIC K. pneumoniae OXA-48 (K. pneumoniae OXA-48; Table S3, […] MH at pH 8.5): 8 µg/mL (≈ 6.05 µM) | MIC E. coli W3110, […] MH at pH 7.4 (E. coli W3110; CSV, […] MH at pH 7.4): 2 ug/mL | MIC E. coli W3110, […] MH at pH 8.5 (E. coli W3110; CSV, […] MH at pH 8.5): 2 ug/mL | MIC E. coli W3110, full MH at pH 7.4 (E. coli W3110; CSV, full MH at pH 7.4): 2 ug/mL | MIC E. coli W3110, full MH at pH 8.5 (E. coli W3110; CSV, full MH at pH 8.5): >32 ug/mL | MIC E. coli W3110 […] (E. coli W3110; diluted MH ([…] MH, pH 8.5) per Table 1 footnote b, 16–20 h at 37 °C): 2 µg/mL (≈ 1.51 µM) | MIC P. aeruginosa PA14 4.18, […] MH at pH 8.5 (PA14 4.18 (pmrB); CSV, […] MH at pH 8.5): 2 ug/mL | MIC P. aeruginosa PA14 4.18, full MH at pH 7.4 (PA14 4.18 (pmrB); CSV, full MH at pH 7.4): 32 ug/mL | MIC PA14 4.18 (pmrB) (PA14 4.18 (pmrB); MH pH 7.4, 16–20 h at 37 °C): 32 µg/mL (≈ 24.2 µM) | MIC P. aeruginosa PA14 4.18 (PA14 4.18 (pmrB); Table S3, […] MH at pH 8.5): 2 µg/mL (≈ 1.51 µM) | MIC S. aureus COL (MRSA), full MH at pH 7.4 (S. aureus COL (MRSA); pH 7.4): 8 ug/mL | MIC S. aureus COL (MRSA), full MH at pH 8.5 (S. aureus COL (MRSA); pH 8.5): >32 ug/mL | MIC P. aeruginosa PAO1, full MH at pH 7.4 (P. aeruginosa PAO1; pH 7.4): 4 ug/mL | MIC P. aeruginosa PAO1, full MH at pH 8.5 (P. aeruginosa PAO1; pH 8.5): >32 ug/mL
